Measured values as given in patent US12583817B2, “Ionizable lipids and compositions and uses thereof” (Massachusetts Institute of Technology, priority 2021, dated 2026).
Entries after “also recorded” stand apart in the source; their conditions may differ.

Legend:
[1] = Toxicity study after repeat nebulized dosing (weight, serum ALT/AST); type: in vivo, mice; details: repeated nebulized delivery
Experimental: (FIG. 6A). […] To determine whether the protein expression in the lung could be controlled by nebulized dose, a dose-response study of the three LNPs was performed, whereby mice were nebulized with 0.25, 0.5, or 1 mg of mRNA. For all three LNPs, there was an increase in lung luminescence corresponding to increasing dose (FIG. 14A). […] For mRNA protein-replacement therapies to treat pulmonary diseases like cystic fibrosis, repeat dosing of the therapeutic will be required unless genome editing is possible. Therefore, the ability to repeat-dose nebulized LNPs was characterized by administration of 1 mg of FFL mRNA every 72 h, with measurement of lung luminescence 6 h after each nebulization. For all LNPs, no loss in lung luminescence was observed over the course of the three administrations (FIG. 6B). Additionally, repeated delivery of the nebulized LNPs was well tolerated as evidenced by the lack of weight loss (FIG. 27) and normal liver enzyme levels (FIG. 14B) in mice.
Toxicity study, 48 h after the third nebulization of FFL mRNA in the repeat dosing study, mice were bled and sera was isolated using microcentrifugation in BD SST microtainers. Serum was analyzed for ALT and AST levels (Custom lipid panel 62149, IDEXX Bioanalytics).

nose = assay: Nebulized FFL mRNA delivery to mice, luminescence in nose; type: in vivo
mouse lung = assay: Nebulized FFL mRNA delivery to mice, lung bioluminescence (IVIS); type: in vivo, C57BL/6 mice; details: for Nebulized lung delivery compared between lipids/NPs: 1 mg dose via nose cone, 6 hr, T1-5 formulated with bPEG20K and NaAc; for In vivo performance via nebulization vs C12-200: 1 mg mRNA dose (FIG. 6A); for Nebulized delivery in NaAc buffer with bPEG20K vs PBS with no excipient: T1-5 LNPs
Experimental: In vivo nebulized delivery. In vivo nebulized delivery of mRNA to C57BL/6 mice (Jackson Laboratory) was performed either in a whole-body exposure chamber or a nose-only exposure chamber (CH Technologies) where specified. LNPs at 0.3 mg/mL of mRNA were loaded into the nebulizer at required volumes with 2% w/v excipients where specified. For the whole-body exposure chamber, the nebulizer was connected to the chamber via a tee and an oxygen flow rate of 15 SCFH was used to direct aerosol into the chamber. For the nose-only exposure chamber, mice were immobilized in restrainers and the restrainers connected to the chamber. A flow rate of 2 SLPM of oxygen was used and pressure within the chamber was maintained at −0.1 din. H2O.
In vivo bioluminescence, 6 h after nebulization, unless otherwise noted, mice were injected intraperitoneally with 0.2 ml XenoLight D-luciferin (10 mg/mL in DPBS, PerkinElmer). For whole-body imaging, mice were anesthetized in a ventilated anesthesia chamber with 2.5% isofluorane in oxygen and imaged 10 min after luciferin injection. Otherwise, mice were sacrificed 10 min after luciferin injection and organs were collected for imaging. Luminescence was measured with an in vivo imaging system (IVIS, PerkinElmer) and quantified using the Living Image software (PerkinElmer).

[2] = test system: ALI cultures derived from primary human bronchial epithelial cells; details: for mRNA delivery in small and large airway ALI cultures, lipids and tail/headgroup variants: handmixed LNPs, not nebulized; for mRNA delivery to small airway ALI cultures: screen of 12 top-performing A549 LNPs
Experimental: Air-liquid interface (ALI) cultures derived from primary human bronchial epithelial cells were selected. ALI cultures are grown on porous Transwell inserts such that, upon reaching confluence, media can be removed from the top (apical) side of the insert and the cells can be fed from the bottom, basolateral, side (FIG. 12A). This enables recapitulation of the conditions of the native bronchial epithelium, where the apical side of the cells is exposed to the air while the basolateral side is bathed in nutrients.
Primary large airway cells (University of North Carolina at Chapel Hill MLI Tissue Procurement and Cell Culture Core) and primary small airway cells (ATCC) were expanded using PneumaCult-ExPlus (StemCell) according to the instructions for the media and plated for ALI cultures at P3 and P4 respectively.
ALI cultures were plated either onto 0.4 μm pore, 6.5 mm diameter PET Transwell inserts for 24-well plates (Corning) or 0.4 μm pore polycarbonate inserts for 96-well plates (Corning). The 24-well plates were used for histology, the two-week transfection timecourse, and TEER measurements; 96-well plates were used for all other experiments, 33,000 cells/well were seeded in the 24 well inserts and 15,000 cells/well were seeded in the 96-well plate inserts.
Per manufacturer instructions, cultures were grown to confluence with both apical and basolateral (ExPlus) media for 2-4 days before airlift. […] Upon airlift, apical media was removed and basolateral media was changed to PneumaCult-ALI (for large airway cells) or ALI-S (for small airway cells) media (StemCell). […] Media was changed 3 times/week and cells were not transfected until at least 20 days of ALI culture.
In vitro transfection experiments. […] The next day. […] For ALI cultures.

[3] = LNP size by DLS before and after nebulization; type: physicochemical; details: nebulized in the presence of bPEG20K and NaAc buffer
Experimental: Nebulization of nanoparticles. For characterizing effects of nebulization on LNP size, encapsulation efficiency, and transfection efficiency, 100 uL of LNPs at 150 ng/uL were loaded into an Aeroneb vibrating mesh nebulizer (Aerogen) and nebulized into 1.5 mL microcentrifuge tubes. Where specified, 2% w/v of excipients were added to the LNP formulation following dialysis and immediately prior to nebulization.

lung epithelium = assay: Nebulized Cre mRNA delivery to Ai14 mice, histology count of tdTomato+ airway cells
A549 cells = assay: In vitro FFL mRNA transfection of A549 cells (Bright-Glo); details: microfluidically mixed, nebulized with bPEG20K and NaAc
[4] = nebulized, 1 mg dose, nose cone
[5] = Cre mRNA nebulized over 3 doses
[6] = all cells, Cre mRNA nebulized over 3 doses

Compound | Tolerability of nebulized LNPs [1] | Protein expression / mRNA delivery in the nose (nose) | Nebulized lung delivery compared between lipids/NPs (mouse lung) | In vivo performance via nebulization vs C12-200 (mouse lung) | Nebulized delivery in NaAc buffer with bPEG20K vs PBS with no excipient (mouse lung) | mRNA delivery in small and large airway ALI cultures, lipids and tail/headgroup variants [2] | mRNA delivery to small airway ALI cultures [2] | Average diameter after nebulization [3] | Lung luminescence (mouse lung; 6 hr after 1 mg dose via nose cone, lipids T1-5 formulated with bPEG20K and NaAc) | Fold improvement of IR-117-17 lung mRNA delivery over NLD1 (mouse lung; [4]) | Improvement of IR-117-17 lung mRNA delivery over polymeric PBAE nanoparticle (mouse lung; [4]) | Small airways with at least 1 transfected cell (lung epithelium; 140/151 airways) | Club cells transfected, large airway (lung epithelium; [5]) | Club cells transfected, small airway (lung epithelium; [5]) | Transfection of large airway cells (average) (lung epithelium; [6]) | Transfection of small airway cells (average) (lung epithelium; [6]) | Transfection of individual stretches of airway (lung epithelium; some stretches) | FFL delivery to A549 cells, post-nebulized LNPs (A549 cells)
CCCCCCCC/C=C\CCCCCCCC(=O)OCCCCCC(O)C(CCCCOC(=O)CCCCCCC/C=C\CCCCCCCC)CN(C)CCCn1cccn1 (stereo not drawn) [IR-19-Py, 5-(((3-(1H-pyrazol-1-yl)propyl)(methyl)amino)methyl)-6-hydroxyundecane-1,11-diyl dioleate] | no apparent toxicity | significantly outperform state-of-the-art mRNA delivery formulations; also recorded: particularly high and extended protein expression was observed in the nose | statistically comparable delivery to C12-200 | performed comparably to C12-200 | improves nebulized delivery of both LNPs compared to PBS | outperformed other screened lipids in ALI cultures | excellent performance | – | – | – | – | – | – | – | – | – | – | –
CCCCC/C=C\C/C=C\CCCCCCCC(=O)OCCCCCC(O)C(CCCCOC(=O)CCCCCCC/C=C\C/C=C\CCCCC)CNCCCN(CCCC)CCCC (stereo not drawn) [IR-117-17, 5-(((3-(dibutylamino)propyl)amino)methyl)-6-hydroxyundecane-1,11-diyl (9Z,9′Z,12Z,12′Z)-bis(octadeca-9,12-dienoate)] | no apparent toxicity | – | significantly outperform state-of-the-art mRNA delivery formulations; also recorded: significantly outperformed C12-200 | outperformed C12-200 | improves nebulized delivery of both LNPs compared to PBS | outperformed other screened lipids in ALI cultures | excellent performance | 116 nm | 1.1×10^6 p s^−1 cm^−2 sr^−1 | 300 fold | twofold; also recorded: two-fold | 93% | 8.4% | 7.6% | 10.3% | 8.8% | near-complete transfection | effective
